# Assay results: US10434067B2, “Composite formulation for oral administration comprising ezetimibe and rosuvastatin” (HANMI PHARM. CO., LTD., priority 2013, dated 2019)
# Test: Forced degradation test of ezetimibe
# Assay type: physicochemical
# Details: for Amount of ezetimibe (%): 2 hours
# Protocol: The main ingredient, ezetimibe was precisely weighed to about 100 mg and put in a 200 mL volumetric flask. Then, about 20 mL of 90% (v/v) acetonitrile (ACN) was added thereto, and then, completely dissolved by performing ultrasonic extraction for about 10 minutes. Next, the resultant mixture was subjected to a forced degradation test according to each condition using control, oxidation, a strong base, strong acid, and heat as described below.
# 1) Control: About 10 mL of distilled water was added to the mixture, and the mixture was left in an oven at a temperature of about 60° C. for about 2 hours to proceed a reaction, cooled down to room temperature, and 10 mL of distilled water was dropped thereto.
# 2) Oxidation: About 10 mL of a 0.5% (v/v) hydrogen peroxide solution was added to the mixture, and the mixture was left in an oven at a temperature of about 60° C. for about 2 hours to proceed a reaction, cooled down to room temperature, and 10 mL of distilled water was dropped thereto.
# 3) Strong base: About 10 mL of 0.1N NaOH was added to the mixture, and the mixture was left in an oven at a temperature of about 60° C. for about 2 hours to proceed a reaction, cooled down to room temperature, and t 10 mL of 0.1N HCl was dropped thereto (neutralization).
# 4) Strong acid: About 10 mL of 0.1N HCl was added to the mixture, and the mixture was left in an oven at a temperature of about 60° C. for about 2 hours to proceed a reaction, cooled down to room temperature, and about 10 mL of 0.1N NaOH 10 mL was dropped thereto (neutralization).
# 5) Heat: About 10 mL of distilled water was added to the mixture, and the mixture was left in an oven at a temperature of about 105° C. for about 2 hours to proceed a reaction, cooled down to room temperature, and about 10 mL of distilled water was dropped thereto.
# Then, each of the samples obtained from the degradation test was cooled down to room temperature, and an extract solvent (i.e., a mixed solution of about 0.1 ml of 85% phosphate solution and about 1,000 ml of acetonitrile) was added thereto for each condition above, thereby preparing a test liquid in an amount of 200 mL. Then, the test liquid was analyzed by ‘HPLC’ according to General Tests as set forth in the Korean Pharmacopoeia and calculated according to a ‘quantitation testing method’ and an ‘related compound testing method’, and the amounts of ezetimibe and its main degradation products having […] relative retention time (RRT) were calculated as shown in Table 9 below and FIG. 1.
# In addition, the amounts of related compounds of each of the test liquids were calculated, and then, analyzed in connection with an RRT for respective test liquids.
smiles,measurement,setting,value
O=C1[C@H](CC[C@H](O)c2ccc(F)cc2)[C@@H](c2ccc(O)cc2)N1c1ccc(F)cc1 [ezetimibe],Total % of related compounds in test liquid,Control,0.63%
same,related compound at relative retention time 0.15,Control,− (Less than 0.05%)
same,related compound at relative retention time 0.18,Control,++ (0.10% or greater and less than 0.20%)
same,related compound at relative retention time 0.26,Control,− (Less than 0.05%)
same,related compound at relative retention time 0.47,Control,+++ (0.20% or greater and less than 0.50%)
same,related compound at relative retention time 0.54,Control,− (Less than 0.05%)
same,related compound at relative retention time 0.64,Control,− (Less than 0.05%)
same,related compound at relative retention time 0.67,Control,− (Less than 0.05%)
same,related compound at relative retention time 0.74,Control,− (Less than 0.05%)
same,related compound at relative retention time 1.11,Control,− (Less than 0.05%)
same,related compound at relative retention time 1.18,Control,− (Less than 0.05%)
same,related compound at relative retention time 1.37,Control,++ (0.10% or greater and less than 0.20%)
same,Amount of ezetimibe (%),"Control: distilled water, 60° C.",57.90%
same,Total % of related compounds in test liquid,Heat,1.97%
same,related compound at relative retention time 0.15,Heat,− (Less than 0.05%)
same,related compound at relative retention time 0.18,Heat,++ (0.10% or greater and less than 0.20%)
same,related compound at relative retention time 0.26,Heat,− (Less than 0.05%)
same,related compound at relative retention time 0.47,Heat,++++ (0.50% or greater and less than 1.0%)
same,related compound at relative retention time 0.54,Heat,− (Less than 0.05%)
same,related compound at relative retention time 0.64,Heat,− (Less than 0.05%)
same,related compound at relative retention time 0.67,Heat,− (Less than 0.05%)
same,related compound at relative retention time 0.74,Heat,− (Less than 0.05%)
same,related compound at relative retention time 1.11,Heat,− (Less than 0.05%)
same,related compound at relative retention time 1.18,Heat,+ (0.05% or greater and less than 0.10%)
same,related compound at relative retention time 1.37,Heat,++++ (0.50% or greater and less than 1.0%)
same,Amount of ezetimibe (%),"Heat: distilled water, 105° C.",0.21%
same,Total % of related compounds in test liquid,Oxidation,0.61%
same,related compound at relative retention time 0.15,Oxidation,− (Less than 0.05%)
same,related compound at relative retention time 0.18,Oxidation,++ (0.10% or greater and less than 0.20%)
same,related compound at relative retention time 0.26,Oxidation,− (Less than 0.05%)
same,related compound at relative retention time 0.47,Oxidation,+++ (0.20% or greater and less than 0.50%)
same,related compound at relative retention time 0.54,Oxidation,− (Less than 0.05%)
same,related compound at relative retention time 0.64,Oxidation,− (Less than 0.05%)
same,related compound at relative retention time 0.67,Oxidation,− (Less than 0.05%)
same,related compound at relative retention time 0.74,Oxidation,− (Less than 0.05%)
same,related compound at relative retention time 1.11,Oxidation,− (Less than 0.05%)
same,related compound at relative retention time 1.18,Oxidation,− (Less than 0.05%)
same,related compound at relative retention time 1.37,Oxidation,++ (0.10% or greater and less than 0.20%)
same,Amount of ezetimibe (%),"Oxidation: 0.5% hydrogen peroxide, 60° C.",61.06%
same,Total % of related compounds in test liquid,Strong acid,0.45%
same,related compound at relative retention time 0.15,Strong acid,+ (0.05% or greater and less than 0.10%)
same,related compound at relative retention time 0.18,Strong acid,++ (0.10% or greater and less than 0.20%)
same,related compound at relative retention time 0.26,Strong acid,++ (0.10% or greater and less than 0.20%)
same,related compound at relative retention time 0.47,Strong acid,− (Less than 0.05%)
same,related compound at relative retention time 0.54,Strong acid,− (Less than 0.05%)
same,related compound at relative retention time 0.64,Strong acid,− (Less than 0.05%)
same,related compound at relative retention time 0.67,Strong acid,− (Less than 0.05%)
same,related compound at relative retention time 0.74,Strong acid,− (Less than 0.05%)
same,related compound at relative retention time 1.11,Strong acid,− (Less than 0.05%)
same,related compound at relative retention time 1.18,Strong acid,− (Less than 0.05%)
same,related compound at relative retention time 1.37,Strong acid,− (Less than 0.05%)
same,Amount of ezetimibe (%),"Strong acid: 0.1N HCl, 60° C.",100.31%
same,Total % of related compounds in test liquid,Strong base,21.48%
same,related compound at relative retention time 0.15,Strong base,+ (0.05% or greater and less than 0.10%)
same,related compound at relative retention time 0.18,Strong base,+++++ (1.0% or greater)
same,related compound at relative retention time 0.26,Strong base,+ (0.05% or greater and less than 0.10%)
same,related compound at relative retention time 0.47,Strong base,+++ (0.20% or greater and less than 0.50%)
same,related compound at relative retention time 0.54,Strong base,+++++ (1.0% or greater)
same,related compound at relative retention time 0.64,Strong base,+++ (0.20% or greater and less than 0.50%)
same,related compound at relative retention time 0.67,Strong base,++ (0.10% or greater and less than 0.20%)
same,related compound at relative retention time 0.74,Strong base,+ (0.05% or greater and less than 0.10%)
same,related compound at relative retention time 1.11,Strong base,+ (0.05% or greater and less than 0.10%)
same,related compound at relative retention time 1.18,Strong base,++ (0.10% or greater and less than 0.20%)
same,related compound at relative retention time 1.37,Strong base,+++++ (1.0% or greater)
same,Amount of ezetimibe (%),"Strong base: 0.1N NaOH, 60° C.",1.56%
same,stability of ezetimibe (in words),in a basic environment,unstable
same,stability of ezetimibe (in words),under an acidic condition,stable
